Assay results reported in patent US20230210797A1, “PREVENTING AND TREATING HYPOGLYCEMIA” (DIAMYD MEDICAL AB, priority 2019, published 2023).
“Also recorded” adds a separate entry of the source.

Columns and labels:
[1] = system: cortisol; experiment: Hypoglycemic clamp: plasma cortisol levels; type: in vivo, human; conditions: for Cortisol levels, Change from baseline, Mean (SD) / Cortisol levels, Change from baseline, Median (Min, Max) / Cortisol levels, Observed value, Mean (SD) / Cortisol levels, Observed value, Median (Min, Max): C-peptide undetectable
Procedure: (§1) In order to evaluate the counterregulatory hormone response to hypoglycemia, a hypoglycemic clamp will be performed. The Hypoglycemic Clamp must be performed according to the instructions in the Operations Manual. (Appendix 3)
(§2) The patient should: • Come to the study site following an overnight fast (>10 hours), i.e. the patient may not eat but is permitted to drink water • Not have taken the Remygen and, if applicable, Alprazolam dose in the morning • Not take short acting/direct acting insulin within 6 hours before the investigation. • The patient is allowed to take base-insulin day/night before, but not in the morning before the investigation.
(§3) Patients with CSII (insulin pump) must continue with their basal dose insulin, but not add bolus dose during the last 6 hours before the investigation.
(§4) If a patient has a blood sugar level <4 mmol/L in the morning of the scheduled visit, the patient is allowed to take dextrose tablets and then come to the study site. The patient is allowed to perform the investigation if the blood sugar level is >4 mmol/L.
(§5) In the dose-escalation part of the study, the patient will take study drug 30 min prior to start of the hypoglycemic clamp. In the main study, the study drug will instead be taken after finalization of the hypoglycemic clamp. Baseline blood samples will be obtained for glucose, glucagon, epinephrine, norepinephrine, growth hormone and cortisol. The clamp will then be initiated by an intravenous insulin infusion at a rate of 2 mU×kg^−1×min^−1. Glucose 100 mg/ml will then be administered in variable infusion rates to clamp the blood glucose concentration at 5.5 mmol/land then at 2.5 mmol/land kept stable for 30 min. Blood glucose will be evaluated repeatedly in order to find the optimal glucose infusion rate. Blood sampling to determined levels of counterregulatory hormones as described above will be performed at each of these target levels when a stable glucose concentration has been reached. The insulin infusion will thereafter be terminated and the patient is allowed to eat and will be observed until normoglycemia is achieved. If necessary, additional glucose administration will be given to allow blood glucose concentrations to normalize.
(§6) Only patients with c-peptide levels that were undetectable (in a standard assay, i.e. <0.01 nmol/L) are included (5 of 6) in the data below.
(§7) Plasma levels of glucagon, cortisol, epinephrine, growth hormone and glucose were measured at baseline (increased glucose in T1D subjects). Plasma glucose was first lowered to normoglycemic levels (5.5 mmol/L) and hormone levels monitored, and then to hypoglycemic levels (2.5 mmol/L) and hormone levels monitored. Difference was calculated as a measurement of the response to hypoglycemia.

[2] = system: norepinephrine; experiment: Hypoglycemic clamp: plasma norepinephrine levels; type: in vivo, human; conditions: for Norepinephrine, change from baseline, Mean (SD) / Norepinephrine, change from baseline, Median (Min, Max) / Norepinephrine, observed value, Mean (SD) / Norepinephrine, observed value, Median (Min, Max): C-peptide undetectable, n=5
Procedure: as §1, §2, §3, §4, §5, §6, §7

[3] = Visit 5, 200 mg GABA per day, Event 2.5 mmol/L
[4] = Visit 5, 200 mg GABA per day, Event 5.5 mmol/L
[5] = Visit 5, 200 mg GABA per day, Event Baseline
[6] = Visit 5, 200 mg GABA per day, Event Diff 2.5-5.5 mmol/L
[7] = Visit 7, 600 mg GABA per day, Event 2.5 mmol/L
[8] = Visit 7, 600 mg GABA per day, Event 5.5 mmol/L
[9] = Visit 7, 600 mg GABA per day, Event Baseline
[10] = Visit 7, 600 mg GABA per day, Event Diff 2.5-5.5 mmol/L
[11] = Visit 9, 1200 mg GABA per day, Event 2.5 mmol/L
[12] = Visit 9, 1200 mg GABA per day, Event 5.5 mmol/L
[13] = Visit 9, 1200 mg GABA per day, Event Baseline
[14] = Visit 9, 1200 mg GABA per day, Event Diff 2.5-5.5 mmol/L
[15] = dose escalation part, oral GABA, type 1 diabetes patients with undetectable c-peptide
[16] = Visit 5, 200 mg GABA per day, event 2.5 mmol/L
[17] = Visit 5, 200 mg GABA per day, event 5.5 mmol/L
[18] = Visit 5, 200 mg GABA per day, event Baseline
[19] = Visit 5, 200 mg GABA per day, event Diff 2.5-5.5 mmol/L
[20] = Visit 7, 600 mg GABA per day, event 2.5 mmol/L
[21] = Visit 7, 600 mg GABA per day, event 5.5 mmol/L
[22] = Visit 7, 600 mg GABA per day, event Baseline
[23] = Visit 7, 600 mg GABA per day, event Diff 2.5-5.5 mmol/L
[24] = Visit 9, 1200 mg GABA per day, event 2.5 mmol/L
[25] = Visit 9, 1200 mg GABA per day, event 5.5 mmol/L
[26] = Visit 9, 1200 mg GABA per day, event Baseline
[27] = Visit 9, 1200 mg GABA per day, event Diff 2.5-5.5 mmol/L

## NCCCC(=O)O [GABA, Gamma-amino butyric acid]
[1]; [3]
  Cortisol levels, Change from baseline, Mean (SD): 49.6 nmol/L
  Cortisol levels, Change from baseline, Median (Min, Max): 40.0 nmol/L
  Cortisol levels, Observed value, Mean (SD): 356.2 nmol/L
  Cortisol levels, Observed value, Median (Min, Max): 334.0 nmol/L
[1]; [4]
  Cortisol levels, Change from baseline, Mean (SD): -141.8 nmol/L
  Cortisol levels, Change from baseline, Median (Min, Max): -179.0 nmol/L
  Cortisol levels, Observed value, Mean (SD): 198.8 nmol/L
  Cortisol levels, Observed value, Median (Min, Max): 176.0 nmol/L
[1]; [5]
  Cortisol levels, Change from baseline, Mean (SD): -198.8 nmol/L
  Cortisol levels, Change from baseline, Median (Min, Max): -196.0 nmol/L
  Cortisol levels, Observed value, Mean (SD): 215.0 nmol/L
  Cortisol levels, Observed value, Median (Min, Max): 213.0 nmol/L
[1]; [6]
  Cortisol levels, Change from baseline, Mean (SD): 191.4 nmol/L
  Cortisol levels, Change from baseline, Median (Min, Max): 125.0 nmol/L
  Cortisol levels, Observed value, Mean (SD): 157.4 nmol/L
  Cortisol levels, Observed value, Median (Min, Max): 162.0 nmol/L
[1]; [7]
  Cortisol levels, Change from baseline, Mean (SD): 51.8 nmol/L
  Cortisol levels, Change from baseline, Median (Min, Max): 36.0 nmol/L
  Cortisol levels, Observed value, Mean (SD): 358.4 nmol/L
  Cortisol levels, Observed value, Median (Min, Max): 360.0 nmol/L
[1]; [8]
  Cortisol levels, Change from baseline, Mean (SD): -157.0 nmol/L
  Cortisol levels, Change from baseline, Median (Min, Max): -185.0 nmol/L
  Cortisol levels, Observed value, Mean (SD): 183.6 nmol/L
  Cortisol levels, Observed value, Median (Min, Max): 166.0 nmol/L
[1]; [9]
  Cortisol levels, Change from baseline, Mean (SD): -222.6 nmol/L
  Cortisol levels, Change from baseline, Median (Min, Max): -217.0 nmol/L
  Cortisol levels, Observed value, Mean (SD): 191.2 nmol/L
  Cortisol levels, Observed value, Median (Min, Max): 189.0 nmol/L
[1]; [10]
  Cortisol levels, Change from baseline, Mean (SD): 208.8 nmol/L
  Cortisol levels, Change from baseline, Median (Min, Max): 141.0 nmol/L
  Cortisol levels, Observed value, Mean (SD): 174.8 nmol/L
  Cortisol levels, Observed value, Median (Min, Max): 194.0 nmol/L
[1]; [11]
  Cortisol levels, Change from baseline, Mean (SD): 6.6 nmol/L
  Cortisol levels, Change from baseline, Median (Min, Max): 29.0 nmol/L
  Cortisol levels, Observed value, Mean (SD): 313.2 nmol/L
  Cortisol levels, Observed value, Median (Min, Max): 285.0 nmol/L
[1]; [12]
  Cortisol levels, Change from baseline, Mean (SD): -117.2 nmol/L
  Cortisol levels, Change from baseline, Median (Min, Max): -115.0 nmol/L
  Cortisol levels, Observed value, Mean (SD): 223.4 nmol/L
  Cortisol levels, Observed value, Median (Min, Max): 193.0 nmol/L
[1]; [13]
  Cortisol levels, Change from baseline, Mean (SD): -196.0 nmol/L
  Cortisol levels, Change from baseline, Median (Min, Max): -191.0 nmol/L
  Cortisol levels, Observed value, Mean (SD): 217.8 nmol/L
  Cortisol levels, Observed value, Median (Min, Max): 226.0 nmol/L
[1]; [14]
  Cortisol levels, Change from baseline, Mean (SD): 123.8 nmol/L
  Cortisol levels, Change from baseline, Median (Min, Max): 83.0 nmol/L
  Cortisol levels, Observed value, Mean (SD): 89.8 nmol/L
  Cortisol levels, Observed value, Median (Min, Max): -10.0 nmol/L
[1]; change in levels when clamping to 2.5 mmol/L from 5.5 mmol/L
  Counter regulatory response of Cortisol, effect of GABA treatment: increased
[1]; clamped to 5.5 mmol/L
  Normoglycemic levels of Cortisol, effect of GABA treatment: decrease
[1]; [15]
  Baseline (no clamp) Cortisol levels, effect of GABA treatment: downregulated; also recorded: decrease
[2]; [16]
  Norepinephrine, change from baseline, Mean (SD): −0.44 (0.61) nmol(L
  Norepinephrine, change from baseline, Median (Min, Max): −0.30 (−1.3, 0.2) nmol(L
  Norepinephrine, observed value, Mean (SD): 1.82 (0.41) nmol(L
  Norepinephrine, observed value, Median (Min, Max): 1.90 (1.4, 2.3) nmol(L
[2]; [17]
  Norepinephrine, change from baseline, Mean (SD): −0.16 (0.52) nmol(L
  Norepinephrine, change from baseline, Median (Min, Max): 0.00 (−0.9, 0.5) nmol(L
  Norepinephrine, observed value, Mean (SD): 1.78 (0.52) nmol(L
  Norepinephrine, observed value, Median (Min, Max): 1.60 (1.2, 2.5) nmol(L
[2]; [18]
  Norepinephrine, change from baseline, Mean (SD): −0.34 (0.53) nmol(L
  Norepinephrine, change from baseline, Median (Min, Max): −0.50 (−0.9, 0.5) nmol(L
  Norepinephrine, observed value, Mean (SD): 1.46 (0.35) nmol(L
  Norepinephrine, observed value, Median (Min, Max): 1.50 (1.1, 2.0) nmol(L
[2]; [19]
  Norepinephrine, change from baseline, Mean (SD): −0.28 (0.59) nmol(L
  Norepinephrine, change from baseline, Median (Min, Max): 0.00 (−1.3, 0.1) nmol(L
  Norepinephrine, observed value, Mean (SD): 0.04 (0.29) nmol(L
  Norepinephrine, observed value, Median (Min, Max): 0.20 (−0.4, 0.3) nmol(L
[2]; [20]
  Norepinephrine, change from baseline, Mean (SD): −0.56 (0.73) nmol(L
  Norepinephrine, change from baseline, Median (Min, Max): −0.50 (−1.6, 0.3) nmol(L
  Norepinephrine, observed value, Mean (SD): 1.70 (0.27) nmol(L
  Norepinephrine, observed value, Median (Min, Max): 1.70 (1.4, 2.1) nmol(L
[2]; [21]
  Norepinephrine, change from baseline, Mean (SD): −0.10 (0.31) nmol(L
  Norepinephrine, change from baseline, Median (Min, Max): −0.10 (−0.4, 0.3) nmol(L
  Norepinephrine, observed value, Mean (SD): 1.84 (0.34) nmol(L
  Norepinephrine, observed value, Median (Min, Max): 2.00 (1.3, 2.1) nmol(L
[2]; [22]
  Norepinephrine, change from baseline, Mean (SD): −0.32 (0.49) nmol(L
  Norepinephrine, change from baseline, Median (Min, Max): −0.30 (−0.9, 0.4) nmol(L
  Norepinephrine, observed value, Mean (SD): 1.48 (0.70) nmol(L
  Norepinephrine, observed value, Median (Min, Max): 1.20 (1.0, 2.7) nmol(L
[2]; [23]
  Norepinephrine, change from baseline, Mean (SD): −0.46 (0.50) nmol(L
  Norepinephrine, change from baseline, Median (Min, Max): −0.50 (−1.2, 0.0) nmol(L
  Norepinephrine, observed value, Mean (SD): −0.14 (0.27) nmol(L
  Norepinephrine, observed value, Median (Min, Max): −0.30 (−0.4, 0.2) nmol(L
[2]; [24]
  Norepinephrine, change from baseline, Mean (SD): −0.66 (0.68) nmol(L
  Norepinephrine, change from baseline, Median (Min, Max): −0.70 (−1.6, 0.0) nmol(L
  Norepinephrine, observed value, Mean (SD): 1.60 (0.42) nmol(L
  Norepinephrine, observed value, Median (Min, Max): 1.60 (1.2, 2.2) nmol(L
[2]; [25]
  Norepinephrine, change from baseline, Mean (SD): −0.46 (0.84) nmol(L
  Norepinephrine, change from baseline, Median (Min, Max): −0.20 (−1.7, 0.4) nmol(L
  Norepinephrine, observed value, Mean (SD): 1.48 (0.50) nmol(L
  Norepinephrine, observed value, Median (Min, Max): 1.40 (0.8, 2.2) nmol(L
[2]; [26]
  Norepinephrine, change from baseline, Mean (SD): −0.58 (0.59) nmol(L
  Norepinephrine, change from baseline, Median (Min, Max): −0.50 (−1.3, 0.2) nmol(L
  Norepinephrine, observed value, Mean (SD): 1.22 (0.35) nmol(L
  Norepinephrine, observed value, Median (Min, Max): 1.00 (0.9, 1.6) nmol(L
[2]; [27]
  Norepinephrine, change from baseline, Mean (SD): −0.20 (0.55) nmol(L
  Norepinephrine, change from baseline, Median (Min, Max): −0.40 (−0.7, 0.7) nmol(L
  Norepinephrine, observed value, Mean (SD): 0.12 (0.41) nmol(L
  Norepinephrine, observed value, Median (Min, Max): 0.00 (−0.2, 0.8) nmol(L
[2]; clamped to 5.5 mmol/L
  Normoglycemic levels of norepinephrine, effect of GABA treatment: decrease
[2]; [15]
  Baseline (no clamp) norepinephrine levels, effect of GABA treatment: downregulated; also recorded: decrease
